# Source: article PMC10419975, “A Novel Betulinic Acid Analogue: Synthesis, Solubility, Antitumor Activity and Pharmacokinetic Study in Rats” (Molecules, 2023)
# Where two headings read alike, the source gives them in different places.
# Experiments:
# [1] = Equilibrium solubility in different solvents (saturation shake-flask, HPLC); format: physicochemical; details: 20 °C, thermodynamic from solid
# Description: (§1) The solubility was recorded at 20 °C in the present study. The solubility under equilibrium conditions was determined using the saturation shake-flask method with minor modifications. Briefly, an excess amount of SBE was added slowly to 1 mL of different solvents including methanol, ethanol, ethyl acetate, n-butanol, n-octanol, acetonitrile, petroleum ether as well as water. The mixture was then in crimp-sealed vials and was stirred vigorously at 20 °C for about 48 h. After that, the mixture was left to stand for an additional 24 h to reach equilibration, and then followed by centrifuging at 13,000 rpm for at least 10 min. 50 µL of the supernatant was transferred into a new tube, and evaporated to dryness under a slow nitrogen stream. The residue was then stored at −20 °C for further use or reconstituted in 1 mL of methanol. For the aqueous solution, 500 µL of the supernatant was transferred to the new tube, and the residue was reconstituted in 100 µL of methanol after dryness. After being centrifuged at 13,000 rpm for 10 min, a 20 μL aliquot was injected into the HPLC systems.
# [2] = system: 2774 (ovarian cancer cell line); assay: In vitro cytotoxic activity, MTT assay; format: cell-based; details: 2774, MTT, 72 h
# Description: (§2) The in vitro cytotoxic activities of SBE were evaluated on six different tumor cell lines including MPC2 (pancreatic cancer cell line), HT29 (colon cancer cell line), DU145 (prostate cancer cell line), NCI-H520 (lung cancer cell line), Hela (cervical cancer cell line) and 2774 (ovarian cancer cell line) using MTT assay. Cells were cultured in RPMI DMEM medium (containing 100 IU/mL G-penicillin, 100 µg/mL streptomycin and supplemented with 10% fetal calf serum) at 37 °C with 5% of CO2 in a CO2 incubator. In the MTT experiments, the cells were initially seeded in a 96-well plate with 0.1–0.2 mL (about 15 × 10^3 cells) of culture medium per well and allowed to attach overnight (about 24 h). Once attached, the cell confluence in each well reached approximately 50–60% when the drugs were added. Then the medium was replaced with fresh medium containing SBE or BA at different concentrations in four replicates. After incubating in the CO2 incubator for 3 days (about 72 h), 30 µL of MTT solution (3 mg/mL in culture medium) was added to each well and incubated for an additional 4 h. The medium was then aspirated and 150 µL of DMSO was added to each well to dissolve the formazan crystals thoroughly. The absorbance (OD value) was quantitated at 490 nm using a microplate reader (ELX800, Biotek, America). The relative growth inhibition rate (%) was calculated as (1 − mean absorbance of the sample/mean absorbance of the control) × 100%, considering the optical density of the control as 100%.
# [3] = system: DU145 (prostate cancer cell line); assay: In vitro cytotoxic activity, MTT assay; format: cell-based; details: Homo sapiens, DU-145, 72 h
# Description: as §2
# [4] = system: HT29 (colon cancer cell line); assay: In vitro cytotoxic activity, MTT assay; format: cell-based; details: Homo sapiens, HT-29, 72 h
# Description: as §2
# [5] = system: Hela (cervical cancer cell line); assay: In vitro cytotoxic activity, MTT assay; format: cell-based; details: Homo sapiens, 72 h
# Description: as §2
# [6] = system: MPC2 (pancreatic cancer cell line); assay: In vitro cytotoxic activity, MTT assay; format: cell-based; details: 72 h
# Description: as §2
# [7] = system: NCI-H520 (lung cancer cell line); assay: In vitro cytotoxic activity, MTT assay; format: cell-based; details: Homo sapiens, 72 h
# Description: as §2
# [8] = system: Lewis lung carcinoma (LLC) tumor; assay: Lewis lung carcinoma (LLC) subcutaneous xenograft growth model; format: in vivo, C57BL/6J mice; details: 0.4 mmol/kg i.p. every other day; for tumor growth inhibition rate (IR) / effect on the body weight of the mice / mean tumor volume: 18 days; for effect on the body weight of the mice: vs vehicle control; for mean tumor volume: placebo 3522.72 ± 2446.63 mm^3; for tumor weight reduced by: day 18, vs vehicle control; for mean tumor weight: day 18, vehicle control 2.86 ± 1.16 g
# Description: The antitumor activities in vivo assay were performed as described previously with minor modifications. C57BL/6J mice (20 ± 2 g) for the xenograft animal model were purchased from the Laboratory Animal Center of Jilin University (Jilin, China). A formulation of SBE (48 mg/mL) or BA (40 mg/mL) was prepared by mixing SBE or BA with ethanol/tween 80/normal saline (v/v/v = 1/1/18). Each of the mice was inoculated subcutaneously on the back with about 1 × 10^6 Lewis lung carcinoma (LLC) tumor cells (purchased from Nanjing KeyGen Biotech. Inc., China) to obtain the xenograft animal model. Then the mice were divided into three experimental groups (n = 4) randomly on the next day after implantation. BA (200 mg/kg, i.e., 0.4 mmol/kg), SBE (240 mg/kg, i.e., 0.4 mmol/kg) or placebo was injected intraperitoneally (i.p.) every other day. The changes in tumor length, width and body weight were also observed and recorded every other day. Xenograft tumor volume (TV) and growth inhibition rate (IR) were calculated as the following equation [25]:TV = 0.5 × length × width^2; IR = (Vcontrol − Vtreat)/Vcontrol × 100%.
# Mice were continually observed for 18 days, and then sacrificed on day 18 via euthanasia. The implanted tumors then were excised and weighed for subsequent analysis. All the animal handling procedures above were according to standard operating procedures approved by the institutional animal care and use committee at Northeast Forestry University.
# Bad/Bcl-xL ratio = assay: Western blot analysis in Hela cells; format: cell-based; details: 50 μmol/L, 24 h
# Description: (§3) Expression of the proteins including cleaved-cas9, Bad and Bcl-xL in Hela cells treated with BA or SBE were determined by western blot analysis. Briefly, HeLa cells (1.7 × 10^5) were seeded in a 6-well microplate and allowed to attach overnight (about 24 h). The cells were then treated with BA or SBE at a concentration of 50 μmol/L for another 24 h. After that, cells were collected and lysed in PIRA buffer (Beyotime Biotech, Beijing, China) with PhosSTOP phosphatase inhibitor cocktail tablets (Roche Diagnostics, Mannheim, Baden-Württemberg, Germany). Bradford method was used to quantify the protein concentration. The samples were denatured at 100 °C for 5 min using a block heater. Then 30 μg of the denatured samples were separated by SDS-PAGE and allowed to transfer to a PVDF membrane. After the blots were blocked and washed, they were incubated overnight at 4 °C with specific primary antibodies against cleaved-cas9, Bad, Bcl-xL and β-actin. The blotting membrane was then washed three times using TBS-tween (Tris buffer saline with 1% Tween-20, pH 7.5), and incubated with IgG secondary antibodies for another 1 h at room temperature (or incubated overnight at 4 °C), followed by the same washing procedures above. After that, the immunoreactive proteins were developed with the ECL system. Imagelab software was used to quantify proteins and β-actin was used as a loading control. The changed fold was represented by the protein expression ratio [(target protein/the β-actin)/(the control group/the β-actin)].
# Bcl-xL = assay: Western blot analysis in Hela cells; format: cell-based; details: 50 μmol/L, 24 h
# Description: as §3
# cleaved-cas9 (caspase 9) = assay: Western blot analysis in Hela cells; format: cell-based; details: 50 μmol/L, 24 h
# Description: as §3
# [9] = Pharmacokinetics of BE after i.g. dosing (previous study); format: in vivo, rat; details: BE i.g. 500 mg/kg vs SBE i.g. 200 mg/kg
# [10] = set-up: method as in PMID 24095874; details: i.g. dose of 500 mg/kg; cited from earlier work
# [11] = Equilibrium solubility in phosphate buffer at different pH; format: physicochemical; details: 20 °C, aqueous buffer, thermodynamic from solid
# Description: as §1
# (§4) Equilibrium solubility and apparent oil-water partition coefficient of SBE in pH 5.0, 6.0, 6.5, 7.0, 7.4 and 8.0 phosphate buffer were also determined. Equilibrium solubility was determined by the method described above. The apparent oil-water partition coefficient (P) was calculated through the mass concentration ratio of the oil phase and water phase after balancing SBE distribution using the following equations: P = C1V1/(C0V0 − C1V1), where C0 and C1 are the initial and final concentrations of SBE in n-octanol before and after equilibration, respectively; V0 is the volume of n-octanol (water-saturated), V1 is the final oil volume after equilibration.
# [12] = Apparent oil/water partition coefficient (water-saturated n-octanol vs phosphate buffer); format: physicochemical; details: for logP: water-saturated n-octanol/phosphate buffer
# Description: as §4, with “Equilibrium” for “Equilibrium solubility and apparent oil-water partition coefficient of SBE in pH 5.0, 6.0, 6.5, 7.0, 7.4 and 8.0 phosphate buffer were also determined. Equilibrium”
# Bad = assay: Western blot analysis in Hela cells; format: cell-based; details: 50 μmol/L, 24 h, vs control cells
# Description: as §3
smiles,measurement,setting,value
"C=C(C)[C@@H]1CC[C@]2(C(=O)O)CC[C@]3(C)[C@H](CC[C@@H]4[C@@]5(C)CC[C@H](O)C(C)(C)[C@@H]5CC[C@]43C)[C@@H]12 [BA, 3β-hydroxy-lup-20(29)-en-28-oic acid, reference compound]",solubility thermodynamic at 48 h,"[1]; acetonitrile, organic solvent or mixture",250 ± 20 µg/mL
same,solubility thermodynamic at 48 h,"[1]; ethanol, organic solvent or mixture",4130 ± 20 µg/mL
same,solubility thermodynamic at 48 h,"[1]; ethyl acetate, organic solvent or mixture",4470 ± 240 µg/mL
same,solubility thermodynamic at 48 h,"[1]; methanol, organic solvent or mixture",1920 ± 440 µg/mL
same,solubility thermodynamic at 48 h,"[1]; n-butanol, organic solvent or mixture",4140 ± 100 µg/mL
same,solubility thermodynamic at 48 h,"[1]; n-octanol, organic solvent or mixture",6230 ± 680 µg/mL
same,solubility thermodynamic at 48 h,"[1]; petroleum ether, organic solvent or mixture",27 ± 10 µg/mL
same,solubility thermodynamic at 48 h,[1]; water,36 ± 10 µg/mL
same,IC50,[2],39.5 ± 2.19 µM
same,IC50,[3],23.3 ± 2.2 µM
same,IC50,[4],32.7 ± 0.62 µM
same,IC50,[5],25.9 ± 1.87 µM
same,IC50,[6],38.6 ± 2.91 µM
same,IC50,[7],19.6 ± 2.44 µM
same,tumor growth inhibition rate (IR),[8],~61.93%
same,effect on the body weight of the mice,[8],no obvious effect
same,mean tumor volume,[8],1340.91 ± 1186.99 mm^3
same,tumor weight reduced by,[8],~68.89%
same,mean tumor weight,[8],0.89 ± 0.53 g
same,ratio of Bad/Bcl-xL,Bad/Bcl-xL ratio,notably up-regulated
same,Bcl-xL levels,Bcl-xL,no significant difference
same,cleavage products of caspase 9,cleaved-cas9 (caspase 9),clearly increased
"C=C(C)[C@@H]1CC[C@]2(CO)CC[C@]3(C)[C@H](CC[C@@H]4[C@@]5(C)CC[C@H](O)C(C)(C)[C@@H]5CC[C@]43C)[C@@H]12 [BE, lup-20(29)-en-3β, 28-diol]",AUC0−∞ of BE relative to that of SBE,[9],about 5%
same,AUC0−∞,[10],1408.3 ± 183.7 ng·h/mL
"C=C(C)[C@@H]1CC[C@]2(COC(=O)CCC(=O)O)CC[C@]3(C)C(CCC4[C@@]5(C)CC[C@H](O)C(C)(C)C5CC[C@]43C)C12 (some centres unmarked) [SBE, 28-O-succinyl betulin]",solubility thermodynamic at 48 h,[11]; phosphate buffer pH 5,2.79 µg/mL
same,solubility thermodynamic at 48 h,[11]; phosphate buffer pH 6,2.66 µg/mL
same,solubility thermodynamic at 48 h,[11]; phosphate buffer pH 6.5,2.46 µg/mL
same,solubility thermodynamic at 48 h,[11]; phosphate buffer pH 7,10.9 µg/mL
same,solubility thermodynamic at 48 h,[11]; phosphate buffer pH 7.4,29.8 µg/mL
same,solubility thermodynamic at 48 h,[11]; phosphate buffer pH 8,15.3 µg/mL
same,Apparent Oil/Water Partition Coefficient (P),[12]; n-octanol/phosphate buffer pH 5,9.68 ± 0.13
same,Apparent Oil/Water Partition Coefficient (P),[12]; n-octanol/phosphate buffer pH 6,9.57 ± 0.30
same,Apparent Oil/Water Partition Coefficient (P),[12]; n-octanol/phosphate buffer pH 6.5,9.75 ± 0.21
same,Apparent Oil/Water Partition Coefficient (P),[12]; n-octanol/phosphate buffer pH 7,8.63 ± 0.19
same,Apparent Oil/Water Partition Coefficient (P),[12]; n-octanol/phosphate buffer pH 7.4,8.14 ± 0.27
same,Apparent Oil/Water Partition Coefficient (P),[12]; n-octanol/phosphate buffer pH 8,9.53 ± 0.23
same,logP,"[12]; pH 5, n-octanol/PBS, over pH 5–8, read-out: LogP values (all)",0.91 to 0.99
same,logP,"[12]; pH 5, n-octanol/phosphate buffer pH 5, read-out: LogP",0.99 ± 0.01
same,logP,"[12]; pH 6, n-octanol/phosphate buffer pH 6, read-out: LogP",0.98 ± 0.01
same,logP,"[12]; pH 6.5, n-octanol/phosphate buffer pH 6.5, read-out: LogP",0.99 ± 0.01
same,logP,"[12]; pH 7, n-octanol/phosphate buffer pH 7, read-out: LogP",0.94 ± 0.01
same,logP,"[12]; pH 7.4, n-octanol/phosphate buffer pH 7.4, read-out: LogP",0.91 ± 0.01
same,logP,"[12]; pH 8, n-octanol/phosphate buffer pH 8, read-out: LogP",0.98 ± 0.01
same,tumor growth inhibition rate (IR),[8],about 88.69%
same,effect on the body weight of the mice,[8],no obvious effect
same,mean tumor volume,[8],398.17 ± 384.06 mm^3
same,tumor weight reduced by,[8],about 85.31%
same,mean tumor weight,[8],0.42 ± 0.40 g
same,expression level of Bad,Bad,significantly higher
same,Bcl-xL levels,Bcl-xL,no significant difference
